# Like-named read-outs stand apart in the source and are kept apart here. Square brackets hold non-standard residues; d marks the D form. Ends that are not written are not given here. Peptide text beside a SMILES is read from it. * marks the point of attachment. fluorescein = fluorescein label at the N-terminus via an aminohexanoic acid (Ahx) linker; FITC = O=C1OC2(c3ccc(O)cc3Oc3cc(O)ccc32)c2ccc(NC(=S)*)cc21; pS = N[C@@H](COP(=O)(O)O)C(=O)O; Ahx = NCCCCCC(=O)O
# Key:
# PIN1-NRF2 interaction [1] = target: T1, PIN1-NRF2 interaction (Homo sapiens, UniProt Q13526, M1N); experiment: FP protein titration: GST-PIN1 titrated to fluorescently labelled NRF2 phospho-peptides in the presence of a fixed concentration of Pintide or PIN1 inhibitor; format: binding; settings: for fold reduction in binding affinity of NRF2_209-222^pSer215 / fold reduction in binding affinity of NRF2_402-415^pSer408 / fold reduction in binding affinity of NRF2_571-584^pSer577: inhibitor 100 µM vs DMSO
# T1 construct: host or cells: E. coli BL21 (DE3)
# Method: First, GST-PIN1 was titrated to the fluorescently labelled Nrf 2 phospho-peptides (10 nM) in the presence of a fixed concentration of Pintide (10 µM).
# In this study, we integrated three different PIN1 inhibitors, including juglone, epigallocatechin gallate (EGCG), and KPT-6566 (Fig. 6a). […] First, GST-PIN1 was titrated to the fluorescently labelled NRF2 phospho-peptides (10 nM) in the presence of a fixed concentration of PIN1 inhibitor (100 µM).
# (§1) Fluorescence polarisation experiments were performed at room temperature in a buffer consisting of 5 mM HEPES pH 7.4, 30 mM NaCl, 0.1% v/v Tween20, and 1% v/v DMSO. Corning black, round-bottom, low-binding 384-well plates were utilized for all assays. The NRF2 mimicking fluorescein-labelled peptides, ETTMVPp[…] (NRF2_209-222^pSer215), DMVQPLp[…] (NRF2_402-415^pSer408), and EDGKPYp[…] (NRF2_571-584^pSer577) and the Pintide peptide (WFYpSPFLE) with the optimal binding for the WW domain were commercially purchased from China Peptides. For protein titration studies, GST-PIN1 was titrated to the fluorescently-labelled Nrf 2 phospho-peptides (10 nM) in the presence of a fixed concentration of PIN1 inhibitor (100 μM) or only DMSO as control group. To show PIN1 specificity, only GST protein was used as the control protein group. Fluorescence polarisation was measured using a CLARIOstar® Microplate Reader with an excitation wavelength of λex: 490/20 nm and an emission wavelength of λem: 535/20 nm. The binding affinities (Kd) were determined by sing GraphPad Prism 7 software, and sigmoidal curves were fitted using the equation: Y = Bottom + (Top − Bottom)/(1 + 10^((Log app.Kd − X) * HillSlope)), where Y represents the mP value, X denotes the log protein concentration, and Top and Bottom represent the plateaus in mP. Moreover, for the ligand displacement assays, the inhibitors were titrated to a fixed concentration of GST-PIN1 (1 μM) and fluorescently labelled NRF2 peptide (10 nM). The change in polarisation values were normalised to the DMSO control group and presented as percentage change.
# PIN1-NRF2 interaction [2] = target: T1, PIN1-NRF2 interaction; experiment: FP competition / ligand displacement assay: competitor titrated to fixed GST-PIN1 and fluorescently labelled NRF2 peptide; format: binding
# Method: Next, a competition binding assay was used to determine if Pintide competed for PIN1 binding with the NRF2 peptides in a concentration dependent manner. Thus, Pintide was titrated to a fixed concentration of GST-PIN1 (1 µM) and fluorescently labelled NRF2 peptide (10 nM).
# Thus, the inhibitors were titrated to a fixed concentration of GST-PIN1 (1 µM) and fluorescently labelled NRF2 peptide (10 nM).
# as §1
# PIN1 [3] = target: T2, PIN1 (Homo sapiens, UniProt Q13526); experiment: Denaturing mass spectrometry of PIN1 incubated with KPT-6566 (covalent modification); settings: PIN1 10 µM, KPT-6566 30 µM, 1 h
# Method: KPT-6566 was previously shown to covalently modify the PIN1 PPIase domain at Cys113 via an unusual disulfide exchange of the sulfonyl-acetate moiety (KPT-65666-A, Fig. 7a)[31]. […] The remaining fragment of KPT-6566 (KPT-6566-B) was reported to be released into the cytoplasm. To verify this, we incubated PIN1 (10 µM) with KPT-6566 (30 µM) and then analysed the results by denaturing mass spectrometry. […] Of this, there was only a barely detectable trace of covalent PIN1 modification with KPT-6566-A (Supplementary Fig. 6a, b). […] Given these findings, the effects of both modes of covalent PIN1 modification by KPT-6566 on NRF2 phospho-peptide binding were subject to computational simulations.
# From protein stock, PIN1 was diluted into an assay buffer solution of 50 mM HEPES, 300 mM NaCl pH 7.4 to a final concentration 10 μM and incubated with KPT-6566 (30 μM) for 1 h. Then, the sample was 2-times diluted by using H2O containing 0.1% v/v formic acid solution to give a final protein concentration of 0.1–1 mg/mL, and mass spectra were obtained using a Waters Acquity XEVO Q ToF instrument.
# PIN1 [4] = target: T2, PIN1; design: method as in PMID 28598431; settings: disulfide exchange of the sulfonyl-acetate moiety at Cys113; cited from earlier work
# breast cancer cells = test system: breast cancer cells; design: method as in PMID 28598431; settings: breast cancer cells treated with KPT-6566; cited from earlier work
# GST-PIN1 [5] = target: GST-PIN1 (Homo sapiens, UniProt Q13526, M1N); experiment: Fluorescence polarisation (FP) direct binding: GST-PIN1 titrated to fluorescently labelled phospho-peptide; design: host or cells: E. coli BL21 (DE3); settings: apparent Kd compared with Pintide
# Method: as §1, with “Moreover, for the ligand displacement assays, the inhibitors were titrated to a fixed concentration of GST-PIN1 (1 μM) and fluorescently labelled NRF2 peptide (10 nM). The change in polarisation values were normalised to the DMSO control group and presented as percentage change.” left out
# GST-PIN1 [6] = target: T3, GST-PIN1 (UniProt Q13526 1-163, methionine (Met 1) mutated to asparagine (Asn 1)); experiment: fluorescence polarisation; competition: Pintide titrated to GST-PIN1 (1 uM) and fluorescently labelled NRF2(209-222) pSer215 peptide (10 nM); settings: both partners purified
# T3 construct: peptidyl-prolyl cis-trans isomerase PIN1 from the GST-PIN1 plasmid (Addgene #19027); also called GST-tagged PIN1 construct; source: E. coli BL21 (DE3), purified (Glutathione spin columns)
# T3 sequence (Q13526 other isoform, or with tags, fused parts or gaps with the stated changes): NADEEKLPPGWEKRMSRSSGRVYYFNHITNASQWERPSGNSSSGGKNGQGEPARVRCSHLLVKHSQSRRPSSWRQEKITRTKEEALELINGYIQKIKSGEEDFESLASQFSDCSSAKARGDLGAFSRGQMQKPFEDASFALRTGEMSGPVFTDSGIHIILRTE
# GST-PIN1 [7] = target: T3, GST-PIN1; experiment: fluorescence polarisation; competition: Pintide titrated to GST-PIN1 (1 uM) and fluorescently labelled NRF2(402-415) pSer408 peptide (10 nM); settings: both partners purified
# GST-PIN1 [8] = target: T3, GST-PIN1; experiment: fluorescence polarisation; competition: Pintide titrated to GST-PIN1 (1 uM) and fluorescently labelled NRF2(571-584) pSer577 peptide (10 nM); settings: both partners purified
# GST-PIN1 [9] = target: T4, GST-PIN1 (UniProt Q13526 1-163, methionine (Met 1) mutated to asparagine (Asn 1)); experiment: FP; 10 uM Pintide
# T4 sequence (Q13526 other isoform, or with tags, fused parts or gaps methionine (Met 1) mutated to asparagine (Asn 1)): as the sequence (Q13526 other isoform, or with tags, fused parts or gaps with the stated changes) above
# GST-PIN1 [10] = target: T4, GST-PIN1; experiment: FP; 100 uM juglone
# GST-PIN1 [11] = target: T4, GST-PIN1; experiment: FP; 100 uM KPT-6566
# GST-PIN1 [12] = target: T3, GST-PIN1; experiment: fluorescence polarisation; GST-PIN1 (or GST) titrated to fluorescently labelled peptide (10 nM); room temperature; 5 mM HEPES pH 7.4, 30 mM NaCl, 0.1% v/v Tween20, 1% v/v DMSO; apparent Kd, variable slope dose-response fit; settings: both partners purified
# GST-PIN1 [13] = target: T4, GST-PIN1; experiment: FP; 100 uM EGCG
# [14] = GST-PIN1 1 µM, labelled NRF2_402-415^pSer408 10 nM, read-out: IC50, inhibition of NRF2_402-415^pSer408 binding to PIN1
# [15] = GST-PIN1 1 µM, labelled NRF2_571-584^pSer577 10 nM, read-out: IC50, inhibition of NRF2_571-584^pSer577 binding to PIN1
# T2 sequence (Q13526 whole entry, the tested form may be a part): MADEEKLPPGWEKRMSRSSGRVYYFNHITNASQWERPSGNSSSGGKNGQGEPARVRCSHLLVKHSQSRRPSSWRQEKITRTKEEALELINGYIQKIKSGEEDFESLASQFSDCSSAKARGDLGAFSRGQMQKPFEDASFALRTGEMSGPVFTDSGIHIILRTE
# T1 sequence (Q13526 whole entry M1N): as the sequence (Q13526 other isoform, or with tags, fused parts or gaps with the stated changes) above
# Chain of GST-PIN1 (Homo sapiens, UniProt Q13526, M1N) (Q13526 whole entry M1N): as the sequence (Q13526 other isoform, or with tags, fused parts or gaps with the stated changes) above
molecule,measurement,setting,value
"O=C(O[C@@H]1Cc2c(O)cc(O)cc2O[C@@H]1c1cc(O)c(O)c(O)c1)c1cc(O)c(O)c(O)c1 [EGCG, epigallocatechin gallate]",inhibitory effect on the binding of any NRF2 phospho-peptide to PIN1,"PIN1-NRF2 interaction [1]; inhibitor 100 µM, all three NRF2 phospho-peptides",did not show any inhibitory effect
CC(C)(C)c1ccc(S(=O)(=O)/N=C2\C=C(SCC(=O)O)C(=O)c3ccccc32)cc1 [KPT-6566],fold reduction in binding affinity of NRF2_209-222^pSer215,PIN1-NRF2 interaction [1],25 fold
same,fold reduction in binding affinity of NRF2_402-415^pSer408,PIN1-NRF2 interaction [1],92 fold
same,fold reduction in binding affinity of NRF2_571-584^pSer577,PIN1-NRF2 interaction [1],149 fold
same,IC50,PIN1-NRF2 interaction [2]; [14],300 nM
same,IC50,PIN1-NRF2 interaction [2]; [15],1400 nM
same,fold more potent than Juglone,"PIN1-NRF2 interaction [2]; IC50 comparison, ligand displacement assay",~ 20 fold
same,IC50,"PIN1-NRF2 interaction [2]; range over the three NRF2 phospho-peptides, read-out: IC50 range, inhibitory effect on PIN1-NRF2 interaction",300 to 1400 nM
same,extent of covalent PIN1 modification,PIN1 [3],only a small amount of covalent PIN1 modification was observed
same,mass increase of the major modified PIN1 species,PIN1 [3],353 Da
same,PIN1 mass increase,PIN1 [4],90 Da
same,NRF2-mediated oxidative stress elements (microarray analysis),breast cancer cells,upregulation
same,"NRF2 downstream enzymes cFOS, HO1, NQO1, TXNRD1, DNAJB9 at the mRNA level (quantitative RT-PCR)",breast cancer cells,upregulation
"CSCC[C@H](NC(=O)[C@@H](NC(=O)[C@@H](NC(=O)[C@H](CCC(=O)O)NC(=O)CCCCCNC(=S)Nc1ccc2c(c1)C(=O)OC21c2ccc(O)cc2Oc2cc(O)ccc21)[C@@H](C)O)[C@@H](C)O)C(=O)N[C@H](C(=O)N1CCC[C@H]1C(=O)N[C@@H](COP(=O)(O)O)C(=O)N1CCC[C@H]1C(=O)N[C@@H](CCC(=O)O)C(=O)N[C@@H](C)C(=O)N[C@@H](CCCCN)C(=O)N[C@@H](CC(C)C)C(=O)N[C@H](C(=O)N[C@@H](CCC(=O)O)C(=O)O)[C@@H](C)O)C(C)C [NRF2_209-222^pSer215, ETTMVPpSPEAKLTE] ({FITC-Ahx}-ETTMVP[pS]PEAKLTE-OH; N-terminus assumed)",fold weaker interaction with PIN1 than the optimised Pintide ligand,GST-PIN1 [5],tenfold
"CSCC[C@H](NC(=O)[C@H](CC(=O)O)NC(=O)CCCCCNC(=S)Nc1ccc2c(c1)C(=O)OC21c2ccc(O)cc2Oc2cc(O)ccc21)C(=O)N[C@H](C(=O)N[C@@H](CCC(N)=O)C(=O)N1CCC[C@H]1C(=O)N[C@@H](CC(C)C)C(=O)N[C@@H](COP(=O)(O)O)C(=O)N1CCC[C@H]1C(=O)N[C@@H](CO)C(=O)N[C@@H](CCC(N)=O)C(=O)NCC(=O)N[C@@H](CCC(N)=O)C(=O)N[C@@H](CO)C(=O)N[C@H](C(=O)O)[C@@H](C)O)C(C)C [NRF2_402-415^pSer408, DMVQPLpSPSQGQST] ({FITC-Ahx}-DMVQPL[pS]PSQGQST-OH; N-terminus assumed)",fold weaker interaction with PIN1 than the optimised Pintide ligand,GST-PIN1 [5],~ 13 fold
O=C1C=CC(=O)c2c(O)cccc21 [juglone],fold reduction in binding affinity of NRF2_209-222^pSer215,PIN1-NRF2 interaction [1],8 fold
same,fold reduction in binding affinity of NRF2_402-415^pSer408,PIN1-NRF2 interaction [1],18 fold
same,fold reduction in binding affinity of NRF2_571-584^pSer577,PIN1-NRF2 interaction [1],sixfold
same,IC50,"PIN1-NRF2 interaction [2]; GST-PIN1 1 µM, labelled NRF2_209-222^pSer215 10 nM, read-out: IC50, inhibition of NRF2_209-222^pSer215 binding to PIN1",26800 nM
same,IC50,PIN1-NRF2 interaction [2]; [14],20000 nM
same,IC50,PIN1-NRF2 interaction [2]; [15],30000 nM
"WFY[pS]PFLE (also called WW domain-selective Pintide; source: synthetic peptide, bought: China Peptides) [Pintide (competitor, not labelled)]",IC50,GST-PIN1 [6],5700 nM
same,IC50,GST-PIN1 [7],6800 nM
same,IC50,GST-PIN1 [8],6700 nM
"{fluorescein-Ahx}-DMVQPL[pS]PSQGQST-OH (NRF2 (nuclear factor erythroid 2-related factor 2), residues 402-415, linker between the Neh6 and Neh1 domains; source: synthetic peptide, bought: China Peptides) [fluorescein-labelled NRF2(402-415) pSer408 phospho-peptide]",Kd,GST-PIN1 [9],1590 nM
same,Kd,GST-PIN1 [10],3900 nM
same,Kd,GST-PIN1 [11],20200 nM
same,Kd,GST-PIN1 [12],221 ± 40 nM
"WFY[pS]PFLE (also: fluorescently labelled, site not given here, source: synthetic peptide, bought: China Peptides) [Pintide, fluorescently labelled]",Kd,GST-PIN1 [12],17 ± 3 nM
"{fluorescein-Ahx}-EDGKPY[pS]PSEYDLQ-OH (NRF2 (nuclear factor erythroid 2-related factor 2), residues 571-584, in the Neh3 domain; see recheck for residue 582; source: synthetic peptide, bought: China Peptides) [fluorescein-labelled NRF2(571-584) pSer577 phospho-peptide]",Kd,GST-PIN1 [13],200 nM
same,Kd,GST-PIN1 [9],1760 nM
same,Kd,GST-PIN1 [10],1000 nM
same,Kd,GST-PIN1 [11],25300 nM
same,Kd,GST-PIN1 [12],168 ± 25 nM
"{fluorescein-Ahx}-ETTMVP[pS]PEAKLTE-OH (NRF2 (nuclear factor erythroid 2-related factor 2), residues 209-222, in the Neh7 domain; also called Peptide 1; source: synthetic peptide, bought: China Peptides) [fluorescein-labelled NRF2(209-222) pSer215 phospho-peptide]",Kd,GST-PIN1 [9],1070 nM
same,Kd,GST-PIN1 [10],1300 nM
same,Kd,GST-PIN1 [11],4040 nM
same,Kd,GST-PIN1 [12],157 ± 15 nM

# From paper PMC11909128, “Identification and inhibition of PIN1-NRF2 protein–protein interactions through computational and biophysical approaches” (Scientific Reports, 2025)
